Laboratory results as given in patent US7727989B2, “4-benzimidazol-2-yl-pyridazine-3-one-derivatives, production and use thereof in medicaments” (Sanofi-Aventis Deutschland GmbH, priority 2004, dated 2010).

Target: human recombinant GSK-3β (Homo sapiens, UniProt P49841)
Assay: GSK-3β activity, AlphaScreen, primed glycogen synthase substrate peptide
Type: biochemical
Details: not given
Description: Functional measurements to ascertain IC50 values:
GSK-3β activity is measured using human recombinant GSK-3β and a primed (pre-phosphorylated) substrate peptide (derived from glycogen synthase and containing the phosphorylation sites 3a, b, and c) on the basis of the AlphaScreen technology in 384-well plate format (small volume plate, white, Greiner). […] After adding […] Donor beads (20 μg/ml) and […] antibody (anti-phosphoglycogen synthase 1:2000)-coated Acceptor beads (40 μg/ml) in AlphaScreen detection buffer (20 mM Hepes, pH 7.4, 10 mM MgCl, 40 mM EDTA, 1 mM DTT, 0.1 mg/ml BSA), plates are incubated at room temperature (in the dark) overnight and then placed in a reader (Alphaquest or Fusion) to measure final fluorescence. IC50 values are calculated from the fitted curve corrected for bank values (absence of GSK-3β) and performed in triplicate.

Sequence of human recombinant GSK-3β (P49841 whole entry): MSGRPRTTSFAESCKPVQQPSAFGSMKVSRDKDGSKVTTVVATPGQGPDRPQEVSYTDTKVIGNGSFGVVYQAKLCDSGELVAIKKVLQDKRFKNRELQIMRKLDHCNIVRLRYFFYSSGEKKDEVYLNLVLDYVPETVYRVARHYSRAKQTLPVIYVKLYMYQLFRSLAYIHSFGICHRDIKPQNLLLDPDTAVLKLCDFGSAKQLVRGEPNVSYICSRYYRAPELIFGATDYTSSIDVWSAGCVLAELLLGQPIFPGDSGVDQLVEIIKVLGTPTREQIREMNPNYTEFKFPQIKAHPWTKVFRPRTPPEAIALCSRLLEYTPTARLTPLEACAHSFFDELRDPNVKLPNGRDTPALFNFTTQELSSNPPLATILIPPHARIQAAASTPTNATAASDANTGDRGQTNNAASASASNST

Compound | IC50 [nM]
Cn1cc(-c2cc(-c3nc4ccccc4[nH]3)c(=O)[nH]n2)ccc1=O [Example 50, 4-(1H-Benzimidazol-2-yl)-6-(1-methyl-6-oxo-1,6-dihydropyridin-3-yl)-2H-pyridazin-3-one] | 157

Same assay, conditions: human recombinant GSK-3β 0.18 nM, biot. phospho-glycogen synthase peptide 34 nM, 10 μM ATP, 60 min room temperature, triplicate; read-out: IC50

Compound | IC50 [nM]
N#Cc1ccc2[nH]c(-c3cc(-c4ccncc4)n[nH]c3=O)nc2c1 [Example 21, 4-(5-Cyano-1H-benzimidazol-2-yl)-6-pyridin-4-yl-2H-pyridazin-3-one] | 57
O=c1[nH]nc(-n2ccnc2)cc1-c1nc2ccccc2[nH]1 [Example 68, 4-(1H-Benzimidazol-2-yl)-6-imidazol-1-yl-2H-pyridazin-3-one] | 63
O=c1[nH]nc(-c2ccncc2)cc1-c1nc2cc(C(F)(F)F)ccc2[nH]1 [Example 6, 4-(6-Tri-fluoromethyl-1H-benzimidazol-2-yl)-6-pyridin-4-yl-2H-pyridazin-3-one] | 16
O=c1[nH]nc(-c2ccncc2)cc1-c1nc2ccncc2[nH]1 [Example 38, 4-(3H-imidazol[4,5-c]pyridin-2-yl)-6-pyridin-4-yl-2H-pyridazin-3-one] | 32
O=c1[nH]nc(-c2ccsc2)cc1-c1nc2ccccc2[nH]1 [Example 46, 4-(1H-Benzimidazol-2-yl)-6-thiophen-3-yl-2H-pyridazin-3-one] | 28
CN1CCN(Cc2ccc3nc(-c4cc(-c5ccccc5)n[nH]c4=O)[nH]c3c2)CC1 [Example 53, 4-[6-(4-Methylpiperazin-1-ylmethyl)-1H-benzimidazol-2-yl]-6-phenyl-2H-pyridazin-3-one] | 42
CN1CCN(Cc2ccc3nc(-c4cc(-c5ccncc5)n[nH]c4=O)[nH]c3c2)CC1 [Example 42, 4-[6-(4-Methylpiperazin-1-ylmethyl)-1H-benzimidazol-2-yl]-6-pyridin-4-yl-2H-pyridazin-3-one] | 7
O=c1[nH]nc(-c2ccnc(NC3CC3)n2)cc1-c1nc2ccccc2[nH]1 [Example 58, 4-(1H-Benzimidazol-2-yl)-6-(2-cyclopropylaminopyrimidin-4-yl)-2H-pyridazin-3-one] | 50
Cc1cc(-c2cc(-c3nc4ccc(C(F)(F)F)cc4[nH]3)c(=O)[nH]n2)cc(C)c1O [Example 25, 6-(4-Hydroxy-3,5-dimethylphenyl)-4-(6-tri-fluoromethyl-1H-benzimidazol-2-yl)-2H-pyridazin-3-one] | 56

Test system: not given
Assay: not given
Details: not given

Compound | melting point
CNc1nccc(-c2cc(-c3nc4cc(Cl)ccc4[nH]3)c(=O)[nH]n2)n1 [Example 14, 4-(5-Chloro-1H-benzimidazol-2-yl)-6-(2-methylaminopyrimidin-4-yl)-2H-pyridazin-3-one] | > 300 °C (dec.)
N#Cc1ccc2[nH]c(-c3cc(-c4ccncc4)n[nH]c3=O)nc2c1 [Example 21, 4-(5-Cyano-1H-benzimidazol-2-yl)-6-pyridin-4-yl-2H-pyridazin-3-one] | > 350 °C (dec.)
O=C(NCCNC1CCCCC1)c1ccc2nc(-c3cc(-c4ccncc4)n[nH]c3=O)[nH]c2c1 [Example 8, 2-(3-Oxo-6-pyridin-4-yl-2,3-dihydropyridazin-4-yl)-1H-benzimidazole-5-carboxylic acid (2-cyclohexylaminoethyl)amide] | 271 °C
CN1CCN(CCCNC(=O)c2ccc3nc(-c4cc(-c5ccncc5)n[nH]c4=O)[nH]c3c2)CC1 [Example 9, 2-(3-Oxo-6-pyridin-4-yl-2,3-dihydropyridazin-4-yl)-1H-benzimidazole-5-carboxylic acid [3-(4-methylpiperazin-1-yl)propyl]amide] | > 300 °C
O=c1[nH]nc(-c2ccncc2)cc1-c1nc2ccc(Br)cc2[nH]1 [Example 22, 4-(5-Bromo-1H-benzimidazol-2-yl)-6-pyridin-4-yl-2H-pyridazin-3-one] | > 350 °C (dec.)
O=c1[nH]nc(-c2ccncc2)cc1-c1nc2cc(Cl)ccc2[nH]1 [Example 5, 4-(6-Chloro-1H-benzimidazol-2-yl)-6-pyridin-4-yl-2H-pyridazin-3-one] | > 300 °C (dec.)
Cc1cc(-c2nc3cc(Cl)ccc3[nH]2)c(=O)[nH]n1 [Example 11, 4-(5-Chloro-1H-benzimidazol-2-yl)-6-methyl-2H-pyridazin-3-one] | > 300 °C (dec.)
O=c1[nH]nc(-c2ccncc2)cc1-c1nc2cc(C(F)(F)F)ccc2[nH]1 [Example 6, 4-(6-Tri-fluoromethyl-1H-benzimidazol-2-yl)-6-pyridin-4-yl-2H-pyridazin-3-one] | > 300 °C (dec.)
CCCCNc1nccc(-c2cc(-c3nc4ccc(Cl)cc4[nH]3)c(=O)[nH]n2)n1 [Example 26, 6-(2-Butylaminopyrimidin-4-yl)-4-(6-chloro-1H-benzimidazol-2-yl)-2H-pyridazin-3-one] | 305 °C
O=c1[nH]nc(-c2ccncc2)cc1-c1nc2ccccc2[nH]1 [Example 28, 4-(1H-Benzimidazol-2-yl)-6-pyridin-4-yl-2H-pyridazin-3-one] | > 350 °C (dec.)
Cc1cccc2nc(-c3cc(-c4ccncc4)n[nH]c3=O)[nH]c12 [Example 17, 4-(7-Methyl-1H-benzimidazol-2-yl)-6-pyridin-4-yl-2H-pyridazin-3-one] | > 350 °C (dec.)
O=C(NCCCO)c1ccc2nc(-c3cc(-c4ccncc4)n[nH]c3=O)[nH]c2c1 [Example 10, 2-(3-Oxo-6-pyridin-4-yl-2,3-dihydropyridazin-4-yl)-1H-benzimidazole-5-carboxylic acid (3-hydroxypropyl)amide] | > 300 °C (dec.)
COc1ccc2nc(-c3cc(-c4ccncc4)n[nH]c3=O)[nH]c2c1 [Example 7, 4-(6-Methoxy-1H-benzimidazol-2-yl)-6-pyridin-4-yl-2H-pyridazin-3-one] | > 300 °C (dec.)
O=c1[nH]nc(-c2ccncc2)cc1-c1nc2cc(F)ccc2[nH]1 [Example 20, 4-(5-Fluoro-1H-benzimidazol-2-yl)-6-pyridin-4-yl-2H-pyridazin-3-one] | > 350 °C (dec.)
Cc1cc2nc(-c3cc(-c4ccncc4)n[nH]c3=O)[nH]c2cc1C [Example 18, 4-(5,6-Dimethyl-1H-benzimidazol-2-yl)-6-pyridin-4-yl-2H-pyridazin-3-one] | > 350 °C (dec.)
CCCCNc1nccc(-c2cc(-c3nc4ccc(C(F)(F)F)cc4[nH]3)c(=O)[nH]n2)n1 [Example 27, 6-(2-Butylaminopyrimidin-4-yl)-4-(6-tri-fluoromethyl-1H-benzimidazol-2-yl)-2H-pyridazin-3-one] | 288 °C
CN1CCN(c2ccc3[nH]c(-c4cc(-c5ccncc5)n[nH]c4=O)nc3c2)CC1 [Example 19, 4-[5-(4-Methylpiperazin-1-yl)-1H-benzimidazol-2-yl]-6-pyridin-4-yl-2H-pyridazin-3-one] | > 350 °C (dec.)
